Laboratory results published in patent US20060252807A1, “Novel ortho-terphenyl inhibitors of p38 kinase and methods of treating inflammatory disorders” (Kalypsys, Inc., priority 2005, published 2006).

Legend:
[1] = system: TNF-α production; assay: TNF-α production by LPS-stimulated rats (ELISA); format: in vivo, Male Lewis rats; conditions: rat, −1 hr before LPS; for inhibition at 30 mg/kg / inhibition at 10 mg/kg: read-out: LPS Induced TNF alpha (−1 hr) In Vivo (+) = >15% Inhibition (−) = ≦15% Inhibition
Description: TNF-α Production by LPS-Stimulated Mice
Male Lewis rats (180-200 g) were injected intraperitoneally with lipopolysaccharide (LPS) (50 μg/kg of E. coli strain 0111:B4, Sigma) suspended in sterile saline. Ninety minutes later, mice were sedated by CO2:O2 inhalation and a blood sample was obtained. Serum was separated and analyzed for TNF-α concentrations by commercial ELISA assay per the manufacturer's instructions (R&D Bioscience). Test compounds were administered orally at various times before LPS injection. The compounds were dosed either as suspensions or as solutions in various vehicles or solubilizing agents.
Compounds were dosed 0.5 to 3 hours before LPS stimulation. Rats were anaesthetized with Isofluor and injected i.v. with 0.3 mg/kg of LPS* in a volume of 0.3 ml sterile saline. Ninety minutes after the LPS injection, blood samples were collected into heparin tubes for preparation of plasma samples. Repression of TNFα production is assessed by commercial ELISA and reported below in Table 2.

[2] = target: T1, active p38 alpha enzyme (Upstate Biotechnology) (Homo sapiens, UniProt Q16539); assay: p38α biochemical assay (ATP turnover, luminescent detection, Cambrex PKlight); conditions: Table 1 Biological Activity
T1 construct: purchased Upstate Biotechnology
Outline: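 Active human p38α was incubated with full-length MapkapK2 protein as substrate and 1.4 uM ATP (final) for 2 hours at 30C. Buffer: 200 mM Tris, 100 mM MgCl2, 1.5 mM EGTA, 4 mM CaCl2, 20 mM MOPS, 1 mM EDTA, 1% glycerol, 0.1% β-mercaptoethanol, 1 mg/ml BSA. Total ATP turnover read by luminescence.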

T1 sequence (Q16539 whole entry): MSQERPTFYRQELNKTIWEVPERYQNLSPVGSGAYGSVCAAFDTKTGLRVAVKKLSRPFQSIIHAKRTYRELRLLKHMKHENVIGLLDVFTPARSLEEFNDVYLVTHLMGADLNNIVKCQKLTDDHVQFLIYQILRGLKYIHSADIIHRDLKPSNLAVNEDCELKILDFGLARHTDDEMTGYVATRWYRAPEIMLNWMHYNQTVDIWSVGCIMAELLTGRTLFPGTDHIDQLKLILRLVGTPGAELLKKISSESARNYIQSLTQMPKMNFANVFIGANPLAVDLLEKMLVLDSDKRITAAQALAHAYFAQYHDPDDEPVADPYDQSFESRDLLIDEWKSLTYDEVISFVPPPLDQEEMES

Compound	inhibition at 30 mg/kg [1] [%]	IC50 ([2]; p38α biochemical assay) [nM]	inhibition at 10 mg/kg [1] [%]	IC50 ([2]; p38α kinase) [nM]	ED50 ([1]; oral dosing, read-out: LPS Induced TNF alpha (−1 hr) In Vivo (+) = ED50 ≦ 10 (−) = ED50 > 10) [mg/kg]
Cc1nc(-c2ccc(F)cc2)c(-c2nc(C(=O)NC(C)C)cs2)s1 [Example 46, 4′-(4-Fluoro-phenyl)-2′-methyl-|2,5′|bithiazolyl-4-carboxylic acid isopropylamide]	> 15	≤ 1000			
Cc1onc(-c2ccc(F)cc2)c1-c1ccn(C(=O)NC(C)C)n1 [Example 18, 3-|3-(4-Fluoro-phenyl)-5-methyl-isoxazol-4-yl|-pyrazole-1-carboxylic acid isopropylamide]	> 15	≤ 1000			
CONC(=O)c1csc(-c2c(-c3ccc(F)cc3)n[nH]c2C2CCNCC2)n1 [Example 71, 2-|3-(4-Fluoro-phenyl)-5-piperidin-4-yl-1H-pyrazol-4-yl|-thiazole-4-carboxylic acid methoxy-amide]		≤ 1000	≤ 15		
Cc1onc(-c2ccccc2)c1-c1ccn(C(=O)NC(C)C)n1 [Example 1, 3-(5-Methyl-3-phenyl-isoxazol-4-yl)pyrazole-1-carboxylic acid isopropylamide]	> 15	≤ 1000			
CC(C)NC(=O)c1csc(-c2c(-c3ccc(F)cc3)n[nH]c2C2CCNCC2)n1 [Example 811]			> 15	≤ 1000	
C#CCNC(=O)c1csc(-c2c(-c3ccc(F)cc3)n[nH]c2C2CCN(C(=O)CO)CC2)n1 [Example 66, 2-{3-(4-Fluoro-phenyl)-5-|1-(2-hydroxy-acetyl)-piperidin-4-yl|-1H-pyrazol-4-yl}-thiazole-4-carboxylic acid prop-2-ynylamide]		≤ 1000	≤ 15		
O=C(NCc1cccnc1)c1csc(-c2c(-c3ccc(F)cc3)n[nH]c2C2CCN(C(=O)CO)CC2)n1 [Example 68, 2-{3-(4-Fluoro-phenyl)-5-|1-(2-hydroxy-acetyl)-piperidin-4-yl|-1H-pyrazol-4-yl}thiazole-4-carboxylic acid (pyridin-3-ylmethyl)-amide]		≤ 1000	> 15		
CCNC(=O)c1csc(-c2c(-c3ccc(F)cc3)n[nH]c2C2CCN(C(=O)CO)CC2)n1 [Example 64, 2-{3-(4-Fluoro-phenyl)-5-|1-(2-hydroxy-acetyl)-piperidin-4-yl|-1H-pyrazol-4-yl}-thiazole-4-carboxylic acid ethylamide]		≤ 1000	≤ 15		
CCNC(=O)c1csc(-c2c(-c3ccc(F)cc3)n[nH]c2C2CCNCC2)n1 [Example 2026]			> 15	≤ 1000	
CC(C)NC(=O)c1csc(-c2oc(CN3CCNCC3)nc2-c2ccc(F)cc2)n1 [Example 44, 2-|4-(4-Fluoro-phenyl)-2-piperazin-1-ylmethyl-oxazol-5-yl|-thiazole-4-carboxylic acid isopropylamide]		≤ 1000	≤ 15		
C#CCNC(=O)c1csc(-c2c(-c3ccc(F)cc3)n[nH]c2C2CCNCC2)n1 [Example 2027]			> 15	≤ 1000	
CC(C)NC(=O)n1ccc(-c2c(-c3ccc(F)cc3)noc2CN2CCOCC2)n1 [Example 26, 3-|3-(4-Fluoro-phenyl)-5-morpholin-4-ylmethyl-isoxazol-4-yl|-pyrazole-1-carboxylic acid isopropylamide]		≤ 1000	> 15		≤ 10
